Holding throughout (type): functional
Assay [1] has as its system Schistosoma japonicum. Nature of the assay: Antischistosomal activity against adult Schistosoma japonicum assessed as worm survival at 50 uM after 72 hrs relative to control.
Assay [2] relates to Schistosoma japonicum. As to the kind of experiment: Antischistosomal activity against adult Schistosoma japonicum assessed as worm survival at 100 uM after 48 hrs relative to control.
In assay [3] the test system is Schistosoma japonicum. Nature of the assay: Antischistosomal activity against adult Schistosoma japonicum assessed as worm survival at 50 uM after 48 hrs relative to control.
Assay [4] concerns Schistosoma japonicum. As to the kind of experiment: Antischistosomal activity against juvenile Schistosoma japonicum assessed as worm survival at 50 uM after 48 hrs relative to control.
Assay [5] concerns Schistosoma japonicum. Nature of the assay: Antischistosomal activity against adult Schistosoma japonicum assessed as worm survival at 80 uM after 24 hrs relative to control.
The test system of assay [6] is Schistosoma japonicum. Nature of the assay: Antischistosomal activity against adult Schistosoma japonicum assessed as worm survival at 100 uM after 72 hrs relative to control.
Assay [7] relates to Schistosoma japonicum. Nature of the assay: Antischistosomal activity against adult Schistosoma japonicum assessed as worm survival at 50 uM after 24 hrs relative to control.
In assay [8] the test system is Schistosoma japonicum. As to the kind of experiment: Antischistosomal activity against adult Schistosoma japonicum assessed as worm survival at 100 uM after 24 hrs relative to control.
Assay [9] deals with Schistosoma japonicum. Nature of the assay: Antischistosomal activity against adult Schistosoma japonicum assessed as worm survival at 80 uM after 72 hrs relative to control.
Assay [10] relates to Schistosoma japonicum. Nature of the assay: Antischistosomal activity against juvenile Schistosoma japonicum assessed as worm survival at 50 uM after 72 hrs relative to control.
The test system of assay [11] is Schistosoma japonicum. As to the kind of experiment: Antischistosomal activity against juvenile Schistosoma japonicum assessed as worm survival at 50 uM after 24 hrs relative to control.
For assay [12], the system named is Schistosoma japonicum. Nature of the assay: Antischistosomal activity against adult Schistosoma japonicum assessed as worm survival at 80 uM after 48 hrs relative to control.
Assay [13] relates to Schistosoma japonicum. Nature of the assay: Antischistosomal activity against adult Schistosoma japonicum assessed as worm survival at 10 uM after 48 hrs relative to control.
In assay [14] the test system is Schistosoma japonicum. As to the kind of experiment: Antischistosomal activity against adult Schistosoma japonicum assessed as worm survival at 25 uM after 72 hrs relative to control.
In assay [15] the test system is Schistosoma japonicum. As to the kind of experiment: Antischistosomal activity against adult Schistosoma japonicum assessed as worm survival at 25 uM after 48 hrs relative to control.
The subject of assay [16] is Schistosoma japonicum. Nature of the assay: Antischistosomal activity against juvenile Schistosoma japonicum assessed as worm survival at 5 uM after 24 hrs relative to control.
The test system of assay [17] is Schistosoma japonicum. As to the kind of experiment: Antischistosomal activity against juvenile Schistosoma japonicum assessed as worm survival at 5 uM after 48 hrs relative to control.
For assay [18], the system named is Schistosoma japonicum. As to the kind of experiment: Antischistosomal activity against adult Schistosoma japonicum assessed as worm survival at 10 uM after 72 hrs relative to control.
Assay [19] deals with Schistosoma japonicum. As to the kind of experiment: Antischistosomal activity against juvenile Schistosoma japonicum assessed as worm survival at 15 uM after 72 hrs relative to control.
Assay [20] concerns Schistosoma japonicum. As to the kind of experiment: Antischistosomal activity against adult Schistosoma japonicum assessed as worm survival at 10 uM after 24 hrs relative to control.
The subject of assay [21] is Schistosoma japonicum. As to the kind of experiment: Antischistosomal activity against juvenile Schistosoma japonicum assessed as worm survival at 10 uM after 48 hrs relative to control.
Assay [22] concerns Schistosoma japonicum. Nature of the assay: Antischistosomal activity against juvenile Schistosoma japonicum assessed as worm survival at 10 uM after 24 hrs relative to control.
Assay [23] deals with Schistosoma japonicum. Nature of the assay: Antischistosomal activity against adult Schistosoma japonicum assessed as worm survival at 5 uM after 48 hrs relative to control.
Assay [24] deals with Schistosoma japonicum. Nature of the assay: Antischistosomal activity against juvenile Schistosoma japonicum assessed as worm survival at 15 uM after 24 hrs relative to control.
For assay [25], the system named is Schistosoma japonicum. As to the kind of experiment: Antischistosomal activity against juvenile Schistosoma japonicum assessed as worm survival at 5 uM after 72 hrs relative to control.
The subject of assay [26] is Schistosoma japonicum. As to the kind of experiment: Antischistosomal activity against adult Schistosoma japonicum infected in mouse assessed as total worm reduction at 200 mg/kg, po administered 21 days after infection relative to control. Further details: scale not given: the % may be the effect or the level left.
Assay [27] deals with Schistosoma japonicum. As to the kind of experiment: Antischistosomal activity against juvenile Schistosoma japonicum infected in mouse assessed as total worm reduction at 200 mg/kg, po administered 14 days after infection relative to control. Also on record: scale not given: the % may be the effect or the level left.
Assay [28] relates to Schistosoma japonicum. As to the kind of experiment: Antischistosomal activity against adult Schistosoma japonicum assessed as worm survival at 5 uM after 24 hrs relative to control.
Assay [29] concerns Schistosoma japonicum. As to the kind of experiment: Antischistosomal activity against juvenile Schistosoma japonicum assessed as worm survival at 10 uM after 72 hrs relative to control.
The subject of assay [30] is Schistosoma japonicum. As to the kind of experiment: Antischistosomal activity against juvenile Schistosoma japonicum assessed as worm survival at 15 uM after 48 hrs relative to control.
Assay [31] deals with Schistosoma japonicum. As to the kind of experiment: Antischistosomal activity against adult Schistosoma japonicum assessed as worm survival at 5 uM after 72 hrs relative to control.
Assay [32] deals with Schistosoma japonicum. Nature of the assay: Antischistosomal activity against adult Schistosoma japonicum assessed as worm survival at 25 uM after 24 hrs relative to control.
Assay [33] concerns Schistosoma japonicum. Nature of the assay: Antischistosomal activity against juvenile Schistosoma japonicum assessed as worm survival at 25 uM after 24 hrs relative to control.
For assay [34], the system named is Schistosoma japonicum. Nature of the assay: Antischistosomal activity against juvenile Schistosoma japonicum assessed as worm survival at 25 uM after 48 hrs relative to control.
For assay [35], the system named is Schistosoma japonicum. As to the kind of experiment: Antischistosomal activity against juvenile Schistosoma japonicum assessed as worm survival at 25 uM after 72 hrs relative to control.
Assay [36] concerns Schistosoma japonicum. Nature of the assay: Antischistosomal activity against adult Schistosoma japonicum assessed as worm survival at 15 uM after 48 hrs relative to control.
The test system of assay [37] is Schistosoma japonicum. As to the kind of experiment: Antischistosomal activity against adult Schistosoma japonicum assessed as worm survival at 20 uM after 72 hrs relative to control.
Assay [38] deals with Schistosoma japonicum. Nature of the assay: Antischistosomal activity against adult Schistosoma japonicum assessed as worm survival at 15 uM after 72 hrs relative to control.
Assay [39] deals with Schistosoma japonicum. Nature of the assay: Antischistosomal activity against adult Schistosoma japonicum assessed as worm survival at 20 uM after 48 hrs relative to control.
Assay [40] deals with Schistosoma japonicum. Nature of the assay: Antischistosomal activity against adult Schistosoma japonicum assessed as worm survival at 20 uM after 24 hrs relative to control.
In assay [41] the test system is Schistosoma japonicum. Nature of the assay: Antischistosomal activity against adult Schistosoma japonicum assessed as worm survival at 15 uM after 24 hrs relative to control.

This note sets out measurements from ChEMBL document CHEMBL1949576, “Praziquantel derivatives exhibit activity against both juvenile and adult Schistosoma japonicum” (2012).

For the compound `O=C(Oc1ccc2c(c1)C1CN(C(=O)C3CCCCC3)CC(=O)N1CC2)C1CCC2(CC1)OOC1(CCCCC1)OO2` (stereo not given), the survival at 50 µM in assay [1] is 80%; in assay [3] it was 80%; in [4], 14.3%; in assay [7], 40%; in [10] it was 14.3%; in assay [11] it was 0%. Besides, the survival at 100 µM in assay [2] is 20%; in assay [6], 0%; in [8], 80%. In addition, the survival at 80 µM turned out to be 80% in [5], 40% in assay [9] and 80% in [12].

For the compound `O=C(C1CCCCC1)N1CC(=O)N2CCc3ccc(O)cc3C2C1` (stereo not given), the survival at 50 µM in [1], in assay [3], in assay [4], in assay [7], in assay [10] and in assay [11] was 0% in each case. The survival at 10 µM in assay [13] is 20%; in assay [18] it was 20%; in assay [20] it was 0%; in assay [21], 45.5%; in assay [22] it was 0%; in assay [29], 54.5%. Besides, the survival at 25 µM in assay [14], in [15] and in assay [32] was 0% throughout. For the same compound, the survival at 5 µM was found to be 0% in assay [16]; 27.3% in assay [17]; 80% in assay [23]; 27.3% in [25]; 60% in assay [28]; 80% in assay [31]. Besides, the survival at 15 µM in assay [19], in assay [24] and in [30] was 0% in each case. Further, the Activity in assay [26] worked out at 40.2%; in assay [27], 16.1%.

As to `C[C@H]1[C@@H](CC(=O)Oc2ccc3c(c2)C2CN(C(=O)C4CCCCC4)CC(=O)N2CC3)O[C@@H]2O[C@@]3(C)CC[C@H]4[C@H](C)CC[C@@H]1[C@@]24OO3` (stereo not given in full), the survival at 50 µM in assay [1] amounted to 0%; in assay [3] it was 0%; in assay [4], 0%; in [7] it was 0%; in assay [10] it was 0%; in assay [11], 14.3%. Further, the survival at 10 µM stood at 80% in [13], 0% in assay [18] and 100% in assay [20]. The survival at 25 µM in [14] is 0%; in assay [15], 40%; in [33], 28.6%; in assay [34] it was 25%; in assay [35], 0%; in assay [32], 0%. The survival at 15 µM in assay [19], in assay [24] and in assay [30] was 28.6% in each case. The results for the survival at 5 µM in assay [23], in assay [28] and in assay [31] were 40%, 0% and 20%, respectively. For the same compound, the results for the Activity in assay [26] and in assay [27] were 49.6% and 20.5%, respectively.

As to `O=C(Nc1ccc2c(c1)C1CN(C(=O)C3CCCCC3)CC(=O)N1CC2)C1CCC2(CC1)OOC1(O2)C2CC3CC(C2)CC1C3` (stereo not given), the survival at 50 µM in assay [1], in assay [3] and in [7] was 100% in each case.

In the case of `C[C@H]1[C@@H](CC(=O)Nc2ccc3c(c2)C2CN(C(=O)C4CCCCC4)CC(=O)N2CC3)O[C@@H]2O[C@@]3(C)CC[C@H]4[C@H](C)CC[C@@H]1[C@@]24OO3` (stereo not given in full), the survival at 50 µM in assay [1] came to 100%; in assay [3], 80%; in assay [7] it was 20%.

For the compound `O=C(Nc1ccc2c(c1)C1CN(C(=O)C3CCCCC3)CC(=O)N1CC2)C1CCC2(CC1)OOC1(CCCCC1)OO2` (stereo not given), the survival at 50 µM in assay [1] is 0%; in assay [3] it was 0%; in [4], 0%; in assay [7], 0%; in assay [10], 0%; in [11], 33.3%. The survival at 15 µM in assay [36], in assay [38] and in assay [41] was 100% each time. The survival at 25 µM was determined as 40% in [14]; 0% in assay [15]; 37.5% in assay [33]; 33.3% in [34]; 12.5% in [35]; 60% in assay [32]. Moreover, the survival at 20 µM in assay [37], in [39] and in assay [40] was 100% each time. Further, the Activity worked out at 38.7% in [26] and 25.1% in [27].

On to `C[C@H]1[C@@H](OC(=O)CCC(=O)Oc2ccc3c(c2)C2CN(C(=O)C4CCCCC4)CC(=O)N2CC3)O[C@@H]2O[C@@]3(C)CC[C@H]4[C@H](C)CC[C@@H]1[C@@]24OO3` (stereo not given in full), for which the survival at 50 µM in [1], in assay [3], in [4], in assay [7], in assay [10] and in assay [11] was 0% each time. Further, the survival at 15 µM in assay [36], in assay [38], in [19], in [24], in [41] and in assay [30] was 0% throughout. The survival at 25 µM in assay [14], in assay [15] and in [32] was 0% each time. Besides, the survival at 20 µM in assay [37], in assay [39] and in assay [40] was 0% throughout. Further, the survival at 10 µM was 33.3% in [21], 16.7% in [22] and 33.3% in assay [29]. The Activity is listed as 56.2% in [26] and 70.3% in assay [27].
